Assay results as given in patent US20080058293A1, “Quinoline Derivates and Their Use in Therapy” (priority 2003, published 2008).
Counter-ions that a name gives are not always drawn.

| Structure (SMILES) | melting point |
| --- | --- |
| Cc1ccc2c(C(=O)NC[C@H](C)c3ccccc3)c(Cl)ccc2n1 (as salt: hydrochloride) [Example 1, 6-Chloro-2-methyl-N-[(2R)-2-phenylpropyl]-5-quinolinecarboxamide, hydrochloride] | 190 to 192 °C |
| Cc1ccc2c(C(=O)NC[C@@H](C)c3ccccc3)c(Cl)ccc2n1 (as salt: hydrochloride) [Example 2, 6-Chloro-2-methyl-N-[(2S)-2-phenylpropyl]-5-quinolinecarboxamide, hydrochloride] | 182 to 185 °C |
| C[C@H](CC(=O)Nc1c(Cl)ccc2nc(NCCNCCO)ccc12)c1ccccc1 (as salt: hydrochloride) [Example 9, (βR)-N-[6-Chloro-2-[[2-[(2-hydroxyethyl)amino]ethyl]amino]-5-quinolinyl]-β-methyl-benzenepropanamide, dihydrochloride] | 178 to 182 °C |
| Cc1ccc2c(C(=O)NCCc3ccccc3)c(Cl)ccc2n1 [Example 5, 6-Chloro-2-methyl-N-(2-phenylethyl)-5-quinolinecarboxamide] | 170 to 172 °C |
| C[C@H](CC(=O)Nc1c(Cl)ccc2nc(CCCNCCCO)ccc12)c1ccccc1 [Example 7, (βR)-N-[6-Chloro-2-[3-[(3-hydroxypropyl)amino]propyl]-5-quinolinyl]-β-methyl-benzenepropanamide] | 118 to 120 °C |
| CC(Cc1ccc(Cl)c(Cl)c1)C(=O)Nc1cccc2ncccc12 (stereo not drawn) [Example 8, 3,4-Dichloro-α-methyl-N-5-quinolinyl-benzenepropanamide] | 168 to 170 °C |

The next lines start with the values.

| melting point | Structure (SMILES) |
| --- | --- |
| 180 to 185 °C | O=C(NCC(c1ccccc1)c1ccccc1)c1c(Cl)ccc2nc(N3CCC(C(=O)O)CC3)ccc12 (as salt: acetate) [Example 25, 1-[6-Chloro-5-[[(2,2-diphenylethyl)amino]carbonyl]-2-quinolinyl]-4-piperidinecarboxylic acid, acetate] |
| 265 to 270 °C | O=C(CCc1ccccc1Cl)Nc1c(Cl)ccc2nc(N3CCNCC3)ccc12 (as salt: hydrochloride) [Example 10, 2-Chloro-N-[6-chloro-2-(1-piperazinyl)-5-quinolinyl]-benzenepropanamide, dihydrochloride] |
| 200 °C (dec.) | O=C(CCc1ccc(Cl)cc1Cl)Nc1c(Cl)ccc2nc(N3CCNCC3)ccc12 (as salt: hydrochloride) [Example 11, 2,4-Dichloro-N-[6-chloro-2-(1-piperazinyl)-5-quinolinyl]-benzenepropanamide, dihydrochloride] |
| 183 to 188 °C | O=C(CCc1ccc(Cl)cc1)Nc1c(Cl)ccc2nc(N3CCNCC3)ccc12 (as salt: hydrochloride) [Example 12, 4-Chloro-N-[6-chloro-2-(1-piperazinyl)-5-quinolinyl]-benzenepropanamide, dihydrochloride] |
| 177 to 182 °C | C[C@H](CC(=O)Nc1c(Cl)ccc2nc(N3CC[C@H](NCCO)C3)ccc12)c1ccccc1 (as salt: hydrochloride) [Example 16, (βR)-N-[6-Chloro-2-[(3S)-3-[(2-hydroxyethyl)amino]-1-pyrrolidinyl]-5-quinolinyl]-β-methyl-benzenepropanamide, dihydrochloride] |
| 159 to 162 °C | CNCCCN(C)c1ccc2c(NC(=O)C[C@@H](C)c3ccccc3)c(Cl)ccc2n1 (as salt: trifluoroacetate) [Example 3, (βR)-N-[6-Chloro-2-[methyl[3-(methylamino)propyl]amino]-5-quinolinyl]-β-methyl-benzenepropanamide, ditrifluoroacetate] |
| 194 to 196 °C | C[C@H](CC(=O)Nc1c(Cl)ccc2nc(N3CCNCC3)ccc12)c1ccccc1 [Example 4, (βR)-N-[6-Chloro-2-(1-piperazinyl)-5-quinolinyl]-β-methyl-benzenepropanamide] |
| 204 to 207 °C | C[C@H](CC(=O)Nc1c(Cl)ccc2nc(N3CC[C@H](N)C3)ccc12)c1ccccc1 [Example 13, (βR)-N-[2-[(3S)-3-Amino-1-pyrrolidinyl]-6-chloro-5-quinolinyl]-β-methyl-benzenepropanamide] |
